Experimental data taken from patent US5013757A, “Physiologically active substance Tan-931, its derivatives, their production and use” (Takeda Chemical Industries, Ltd., priority 1988, dated 1991).

Experiments:
human placenta aromatase = target: T1, human placenta aromatase (Homo sapiens, UniProt P11511); assay: In vitro human placenta microsome aromatase inhibitory activity; assay type: biochemical; details: androstenedione 4 μM, 37° C., 1 hour
T1 construct: The resulting pellet was used as a microsome fraction; from tissue; host or cells: human placenta, microsome fraction (148,000×g pellet)
T1 sequence (P11511 1-503): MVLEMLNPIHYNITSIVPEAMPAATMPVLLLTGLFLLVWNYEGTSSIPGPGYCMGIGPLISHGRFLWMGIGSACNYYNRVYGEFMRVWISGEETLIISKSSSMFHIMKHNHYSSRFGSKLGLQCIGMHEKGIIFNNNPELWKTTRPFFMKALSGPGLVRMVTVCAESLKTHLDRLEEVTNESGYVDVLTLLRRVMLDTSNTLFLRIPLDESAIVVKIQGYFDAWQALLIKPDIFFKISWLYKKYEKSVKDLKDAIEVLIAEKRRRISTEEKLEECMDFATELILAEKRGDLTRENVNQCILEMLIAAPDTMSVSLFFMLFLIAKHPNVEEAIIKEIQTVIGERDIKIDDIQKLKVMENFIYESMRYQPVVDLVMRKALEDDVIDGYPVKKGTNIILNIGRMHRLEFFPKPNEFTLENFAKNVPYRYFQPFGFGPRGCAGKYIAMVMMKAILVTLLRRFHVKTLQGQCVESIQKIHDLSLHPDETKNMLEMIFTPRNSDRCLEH
From the text: (§1) The following Experiments specifically illustrate in vitro human placenta aromatase inhibitory activity and inhibition of estrogen synthesis in the rat by the compounds of the present invention.
Preparation of human placenta microsome
The method of F. A. Thompson et al. [J. Biol. Chem., 249, 5364 (1974)] was partly modified. Namely, the placenta was washed with 0.15 M KCl which was previously cooled to remove the attached membrane and large blood vessels and then sufficiently and finely cut with scissors. To the finely cut tissue was added 2 ml of cold 0.02 M phosphate buffer containing 0.25M sucrose (pH 7.4) per 1 g of the tissue and the mixture was homogenized with Polytron homogenizer (30 second×3, in ice). Then, the mixture was centrifuged at 800×g for 10 minutes and the supernatant was centrifuged at 20,000×g for 30 minutes and further at 148,000×g for 45 minutes. The resulting pellet was used as a microsome fraction. The microsome obtained was suspended in 1 ml of the above phosphate buffer per 10 g of the placenta and stored at -80° C. Upon use, it was diluted 5 to 6 times.
Determination of aromatase activity and inhibitory activity
The method of F. A. Thompson et al. [see above] was partly modified as follows.
A reaction mixture (225 μl ) containing 4-androstene-3,17-dione (4 μM ), 1,2 [^3 H]-androstenedione (140,000 dpm), NADPH (550 μM ) and the above microsome (20 μl ) and a solution containing an inhibitor or not (5 μl ) was incubated at 37° C. for 1 hour. According to this determination, [^3 H]-H2 O was formed by aromatization of androstenedione. Then, the reaction mixture was extracted with chloroform (0.5 ml) to separate layers and the aqueous layer obtained was treated with 5% activated carbon (0.25 ml) to remove the free steroid. After high-speed centrifugation, to the supernatant (0.2 ml) was added scintillator (3 ml) and radioactivity was determined with a liquid scintillation counter. By comparing the result obtained by addition of an inhibitor with that of a control sample wherein the reaction was carried out without addition of any inhibitor, an inhibitory rate (%) was calculated. The effectiveness was expressed by the concentration which was required for inhibiting 50% of the enzyme activity at the substrate (androstenedione) concentration of 4 μM

Solubility of TAN-931 = assay type: physicochemical
Acute toxicity in mice = details: mouse, in vivo, sc; subcutaneous, male mice (4 weeks old)
From the text: Thus, the compounds (I-1) have a potent aromatase inhibitory activity and, therefore, they can be advantageously used for prevention and treatment of estrogen dependent diseases such as breast cancer, endometriosis, endometrium cancer, benign breast diseases, prostatomegaly and the like as well as for control of conception. Further, toxicity of the compounds (I-1) of the present invention is low.

[1] = system: estrogen synthesis in rat; assay: In vivo inhibition of estrogen synthesis in PMSG-stimulated young female rats; set-up: species or system SD rats (female, 19 days old)
Description: as §1
In vivo inhibition of estrogen synthesis by the compound 1 (TAN-931) was studied by the following experiment.
Five young SD rats (female, 19 days old) were used per one group. The rats of test groups were administered the compound suspended in 0.2% gum arabic-physiological saline solution subcutaneously at the doses of 25, 50 and 100 mg/kg for 4 days at 24-hour intervals. The rats of control groups (Control 1 and 2) were administered 0.2 ml of 0.2% gum arabic-physiological saline solution. After administration of the compound on the third day after initiation of the test, a single dose of 10 U/rat (s.c.) of pregnant mare's serum gonadotropin (PMSG) was administered to the rats of test groups and Control 2. […] After centrifugation, the plasma was obtained and the plasma estradiol-17 β level was determined by radio immunoassay. Further, the uterus and ovarium were removed from the rat, freed from connective tissue and the like and weighed, respectively. As the control compound for estimation of the pharmacological activity, 4-hydroxyandrostenedione (4-OHA) was used.

[2] = system: various enzymes which pertain to biosynthesis of steroid hormones; details: background statement; cited from earlier work
[3] = 25 mg/kg/day s.c., 4 days, PMSG
[4] = 50 mg/kg/day s.c., 4 days, PMSG
[5] = 100 mg/kg/day s.c., 4 days, PMSG

Row | SMILES | IC50 (human placenta aromatase) | also measured
1 | O=Cc1cc(C(=O)N2CCOCC2)cc(O)c1C(=O)c1c(O)cccc1O [Compound 11] | 16.4 µM | –
2 | COc1cccc(O)c1C(=O)c1c(O)cc(C(=O)O)cc1C=O [Compound 16] | 135 µM | –
3 | CN(C)CCNC(=O)c1cc(O)c(C(=O)c2c(O)cccc2O)c(C=O)c1 [Compound 14] | 16.9 µM | –
4 | COc1cc(C(=O)O)cc(C=O)c1C(=O)c1c(O)cccc1O [Compound 15] | 24 µM | –
5 | C=CCNC(=O)c1cc(O)c(C(=O)c2c(O)cccc2O)c(C=O)c1 [Compound 9] | 15.2 µM | –
6 | O=Cc1cc(C(=O)O)cc(O)c1C(=O)c1c(O)cccc1O [Compound 1] | 17.2 µM | Solubility (Solubility of TAN-931; chloroform, diethyl ether): Slightly soluble; Solubility (Solubility of TAN-931; dimethylsulfoxide (DMSO), methanol, ethanol, acetone): Soluble; Solubility (Solubility of TAN-931; water, n-hexane): Insoluble; LD50 (Acute toxicity in mice): ≥ 800 mg/kg; Plasma estradiol 17-B level [1, 3]: 312.8 ± 192.4 pg/mL; Tissue weight Ovarium [1, 3]: 24.2 ± 6.2 mg; Tissue weight Uterus [1, 3]: 108.4 ± 15.6 mg; Plasma estradiol 17-B level [1, 4]: 80.8 ± 64.2 pg/mL; Tissue weight Ovarium [1, 4]: 16.4 ± 6.4 mg; Tissue weight Uterus [1, 4]: 89.4 ± 30.8 mg; Plasma estradiol 17-B level [1, 5]: 50.2 ± 23.5 pg/mL; Tissue weight Ovarium [1, 5]: 14.5 ± 1.5 mg; Tissue weight Uterus [1, 5]: 66.3 ± 38.0 mg; blood estrogen level raised by stimulation due to PMSG administration ([1]; result in words): significantly lowered
7 | COCOC(=O)c1cc(O)c(C(=O)c2c(O)cccc2O)c(C=O)c1 [Compound 3] | 12.4 µM | –
8 | COC(=O)c1cc(O)c(C(=O)c2c(O)cccc2O)c(C=O)c1 [Compound 2] | 22.1 µM | –
9 | CNC(=O)c1cc(O)c(C(=O)c2c(O)cccc2O)c(C=O)c1 [Compound 6] | 21.3 µM | –
10 | CC(C)NC(=O)c1cc(O)c(C(=O)c2c(O)cccc2O)c(C=O)c1 [Compound 10] | 25.6 µM | –
11 | C[C@]12CCC(=O)C(O)=C1CC[C@@H]1[C@@H]2CC[C@]2(C)C(=O)CC[C@@H]12 [Compound 4-OHA, 4-hydroxyandrostenedione, reference compound] | – | Plasma estradiol 17-B level [1, 5]: 149.6 ± 76.7 pg/mL; Tissue weight Ovarium [1, 5]: 28.4 ± 7.9 mg; Tissue weight Uterus [1, 5]: 85.9 ± 13.0 mg; Weight gain [1, 5]: 22.2 ± 1.5 g
12 | O=Cc1cc(C(=O)N2CCCC2)cc(O)c1C(=O)c1c(O)cccc1O [Compound 12] | 23.4 µM | –
13 | CCCCCCNC(=O)c1cc(O)c(C(=O)c2c(O)cccc2O)c(C=O)c1 [Compound 8] | 17.6 µM | –
14 | O=Cc1cc(C(=O)OCc2ccccc2)cc(O)c1C(=O)c1c(O)cccc1O [Compound 4] | 206 µM | –
15 | CCC1(c2ccc(N)cc2)CCC(=O)NC1=O (centres unmarked) [aminoglutethimide] | – | inhibition of enzymes of steroid hormone biosynthesis [2]: inhibits various enzymes
16 | COc1cccc(O)c1C(=O)c1c(C=O)cc(C(=O)O)cc1OC [Compound 17] | 96.6 µM | –
17 | O=Cc1cc(C(=O)O)cc(O)c1C(=O)c1c(O)ccc(Cl)c1O [Compound 27] | 14.3 µM | –
18 | COc1cc(C(=O)N(C)C)cc(C=O)c1C(=O)c1c(O)cccc1O [Compound 19] | 18.3 µM | –
19 | Cc1ccc(NC(=O)c2cc(O)c(C(=O)c3c(O)cccc3O)c(C=O)c2)cc1 [Compound 13] | 16.1 µM | –
20 | CN(C)C(=O)c1cc(O)c(C(=O)c2c(O)cccc2O)c(C=O)c1 [Compound 7] | 14.6 µM | –
21 | CCCCCCOC(=O)c1cc(O)c(C(=O)c2c(O)cccc2O)c(C=O)c1 [Compound 5] | 32.3 µM | –
